Two compounds from article PMC8901637, “Deprogramming metabolism in pancreatic cancer with a bi-functional GPR55 inhibitor and biased β2 adrenergic agonist” (Scientific Reports, 2022) can be followed below.

The target in experiment [1] is T1, GPR55 (Homo sapiens, UniProt Q9Y2T6).
T1 construct: 3 × HA-tagged human GPR55 stably expressed in HEK293 cells
The experiment can be described thus: inhibition of uptake of the fluorescent GPR55 agonist T1117 in hGPR55-HEK293 cells; positive control. It is filed as cell-based.

Experiment [2] concerns the target T1, GPR55. Description: inhibition of uptake of the fluorescent GPR55 agonist T1117 in hGPR55-HEK293 cells (live-cell imaging). The format is cell-based.

T1 sequence (Q9Y2T6 whole entry): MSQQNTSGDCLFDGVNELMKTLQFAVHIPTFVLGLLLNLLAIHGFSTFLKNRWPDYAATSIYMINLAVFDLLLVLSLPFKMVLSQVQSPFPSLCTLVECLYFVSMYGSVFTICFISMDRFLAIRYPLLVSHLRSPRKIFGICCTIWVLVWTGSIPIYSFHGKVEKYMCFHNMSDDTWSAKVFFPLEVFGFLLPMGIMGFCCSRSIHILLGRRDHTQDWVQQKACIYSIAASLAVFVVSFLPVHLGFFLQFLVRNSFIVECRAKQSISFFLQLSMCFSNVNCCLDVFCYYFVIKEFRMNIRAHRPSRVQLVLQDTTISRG

Regarding `COc1ccc(C[C@@H](C)NC[C@H](O)c2cc(O)cc(O)c2)c2ccccc12` [(R,R′)-MNF], at GPR55 [1], the “% reduction in T1117 incorporation” value is ~ 70 % reduction in T1117 incorporation.

On GPR55 [2], `COc1ccc(C[C@H](C)NC[C@H](O)c2cc(O)cc(O)c2)c2ccccc12` [(R,S′)-MNF, (R,S′)-4′-methoxy-1-naphthylfenoterol] yielded an IC50 of 1.3 µM.

Usually IC50 stands for the concentration needed to halve the response being measured. A lower IC50 goes with greater potency in that assay.
